Test results taken from patent US12290596B2, “Compositions and methods for the treatment of opioid overdose” (priority 2021, dated 2025).

Tests used:
[1] = Two-period crossover pharmacokinetics of nalmefene 3 mg IN vs 1.0 mg IM (Example 12); settings: human, plasma; for concentration at 0.5 h: 0.500 h
[2] = Example 14 safety: adverse events; settings: Part 2
[3] = intramuscular, 1 mg, Mean plasma concentration, Treatment B 1.0 mg IM
[4] = intramuscular, 1 mg, Median plasma concentration, Treatment B 1.0 mg IM
[5] = other: intranasal, 3 mg, Mean plasma concentration, Treatment A 3.0 mg IN
[6] = other: intranasal, 3 mg, Median plasma concentration, Treatment A 3.0 mg IN

C=C1CC[C@@]2(O)[C@H]3Cc4ccc(O)c5c4[C@@]2(CCN3CC2CC2)[C@H]1O5 [Nalmefene, 17-cyclopropylmethyl-4,5α-epoxy-6-methylenemorphinan-3,14-diol]
concentration at 3 h [1, 3]: 0.896 ng/mL
concentration at 4 h [1, 3]: 0.824 ng/mL
concentration at 6 h [1, 3]: 0.688 ng/mL
concentration at 8 h [1, 3]: 0.67 ng/mL
concentration at 36 h [1, 3]: 0.0968 ng/mL
concentration at 12 h [1, 3]: 0.538 ng/mL
concentration at 18 h [1, 3]: 0.36 ng/mL
concentration at 24 h [1, 3]: 0.223 ng/mL
concentration at 48 h [1, 3]: 0.0491 ng/mL
concentration at 0 h [1, 4]: 0 ng/mL
concentration at 0.5 h [1, 4]: 0.945 ng/mL
concentration at 1 h [1, 4]: 0.829 ng/mL
concentration at 2 h [1, 4]: 0.858 ng/mL
concentration at 3 h [1, 4]: 0.818 ng/mL
concentration at 4 h [1, 4]: 0.77 ng/mL
concentration at 6 h [1, 4]: 0.673 ng/mL
concentration at 8 h [1, 4]: 0.629 ng/mL
concentration at 36 h [1, 4]: 0.0915 ng/mL
concentration at 12 h [1, 4]: 0.516 ng/mL
concentration at 18 h [1, 4]: 0.341 ng/mL
concentration at 24 h [1, 4]: 0.203 ng/mL
concentration at 48 h [1, 4]: 0.0436 ng/mL
half-life ([1]; other: intranasal (nasal spray), 3 mg, Plasma half-life, 3 mg IN): ~11 h
AUC(0-t) ([1]; other: intranasal, 3 mg, AUC0-5 min, GeoMean, Treatment A 3.0 mg IN (Test)): 0.06 ng·h/mL
AUC(0-t) ([1]; other: intranasal, 3 mg, AUC0-5 min, Treatment A: 3.0 mg nalmefene hydrochloride IN, Geo. Mean, n 66): 0.0599 ng·h/mL
AUC(0-t) ([1]; other: intranasal, 3 mg, AUC0-5 min, Treatment A: 3.0 mg nalmefene hydrochloride IN, Median, n 66): 0.0546 ng·h/mL
AUC(0-t) ([1]; other: intranasal, 3 mg, AUC0-10 min, GeoMean, Treatment A 3.0 mg IN (Test)): 0.514 ng·h/mL
AUC(0-t) ([1]; other: intranasal, 3 mg, AUC0-10 min, Treatment A: 3.0 mg nalmefene hydrochloride IN, Geo. Mean, n 66): 0.523 ng·h/mL
AUC(0-t) ([1]; other: intranasal, 3 mg, AUC0-10 min, Treatment A: 3.0 mg nalmefene hydrochloride IN, Mean, n 66): 0.787 ng·h/mL
AUC(0-t) ([1]; other: intranasal, 3 mg, AUC0-10 min, Treatment A: 3.0 mg nalmefene hydrochloride IN, Median, n 66): 0.537 ng·h/mL
AUC(0-t) ([1]; other: intranasal, 3 mg, AUC0-15 min, GeoMean, Treatment A 3.0 mg IN (Test)): 1.19 ng·h/mL
AUC(0-t) ([1]; other: intranasal, 3 mg, AUC0-15 min, Treatment A: 3.0 mg nalmefene hydrochloride IN, Geo. Mean, n 66): 1.2 ng·h/mL
AUC(0-t) ([1]; other: intranasal, 3 mg, AUC0-15 min, Treatment A: 3.0 mg nalmefene hydrochloride IN, Mean, n 66): 1.6 ng·h/mL
AUC(0-t) ([1]; other: intranasal, 3 mg, AUC0-15 min, Treatment A: 3.0 mg nalmefene hydrochloride IN, Median, n 66): 1.19 ng·h/mL
AUC(0-t) ([1]; other: intranasal, 3 mg, AUC0-20 min, GeoMean, Treatment A 3.0 mg IN (Test)): 1.87 ng·h/mL
AUC(0-t) ([1]; other: intranasal, 3 mg, AUC0-20 min, Treatment A: 3.0 mg nalmefene hydrochloride IN, Geo. Mean, n 66): 1.89 ng·h/mL
AUC(0-t) ([1]; other: intranasal, 3 mg, AUC0-20 min, Treatment A: 3.0 mg nalmefene hydrochloride IN, Mean, n 66): 2.34 ng·h/mL
AUC(0-t) ([1]; other: intranasal, 3 mg, AUC0-20 min, Treatment A: 3.0 mg nalmefene hydrochloride IN, Median, n 66): 1.85 ng·h/mL
AUC(0-t) ([1]; other: intranasal, 3 mg, AUC0-30 min, GeoMean, Treatment A 3.0 mg IN (Test)): 3.04 ng·h/mL
AUC(0-t) ([1]; other: intranasal, 3 mg, AUC0-30 min, Treatment A: 3.0 mg nalmefene hydrochloride IN, Geo. Mean, n 66): 3.07 ng·h/mL
AUC(0-t) ([1]; other: intranasal, 3 mg, AUC0-30 min, Treatment A: 3.0 mg nalmefene hydrochloride IN, Mean, n 66): 3.55 ng·h/mL
AUC(0-t) ([1]; other: intranasal, 3 mg, AUC0-30 min, Treatment A: 3.0 mg nalmefene hydrochloride IN, Median, n 66): 3.04 ng·h/mL
AUC(0-t) ([1]; other: intranasal, 3 mg, AUC0-[…], Treatment A: 3.0 mg nalmefene hydrochloride IN, Mean, n 66): 0.0193 ng·h/mL
AUC(0-t) ([1]; other: intranasal, 3 mg, AUCLast, GeoMean, Treatment A 3.0 mg IN (Test)): 38.9 ng·h/mL
AUC(0-inf) ([1]; other: intranasal, 3 mg, AUCinf, GeoMean, Treatment A 3.0 mg IN (Test)): 40.3 ng·h/mL
Cmax ([1]; other: intranasal, 3 mg, Cmax, GeoMean, Treatment A 3.0 mg IN (Test)): 10.3 ng/mL
concentration at 0 h [1, 5]: 0.00146 ng/mL
concentration at 0.5 h [1, 5]: 6.25 ng/mL
concentration at 1 h [1, 5]: 4.64 ng/mL
concentration at 2 h [1, 5]: 4.03 ng/mL
concentration at 3 h [1, 5]: 3.17 ng/mL
concentration at 4 h [1, 5]: 2.52 ng/mL
concentration at 6 h [1, 5]: 1.69 ng/mL
concentration at 8 h [1, 5]: 1.23 ng/mL
concentration at 36 h [1, 5]: 0.171 ng/mL
concentration at 12 h [1, 5]: 0.87 ng/mL
concentration at 18 h [1, 5]: 0.529 ng/mL
concentration at 24 h [1, 5]: 0.366 ng/mL
concentration at 48 h [1, 5]: 0.0875 ng/mL
concentration at 0 h [1, 6]: 0 ng/mL
concentration at 0.5 h [1, 6]: 5.86 ng/mL
concentration at 1 h [1, 6]: 4.68 ng/mL
concentration at 2 h [1, 6]: 3.99 ng/mL
concentration at 3 h [1, 6]: 3.13 ng/mL
concentration at 4 h [1, 6]: 2.49 ng/mL
concentration at 6 h [1, 6]: 1.65 ng/mL
concentration at 8 h [1, 6]: 1.18 ng/mL
concentration at 36 h [1, 6]: 0.165 ng/mL
concentration at 12 h [1, 6]: 0.832 ng/mL
concentration at 18 h [1, 6]: 0.518 ng/mL
concentration at 24 h [1, 6]: 0.341 ng/mL
concentration at 48 h [1, 6]: 0.0843 ng/mL
Number of TEAEs [2]: 172
Subjects reporting Grade 1 severity TEAEs [2]: 68.9%
Subjects reporting Grade 2 severity TEAEs [2]: 23.0%
Subjects reporting TEAEs [2]: 91.8%
Subjects reporting headache [2]: 59.0%
Subjects who discontinued the study drug due to an AE [2]: 6.6%
